Laboratory results: ChEMBL document CHEMBL4428075, “New antiproliferative 7-(4-(N-substituted carbamoylmethyl)piperazin-1-yl) derivatives of ciprofloxacin induce cell cycle arrest at G2/M phase” (Bioorg Med Chem, 2016)
pIC50: −log10 of the molar value.

Assays:
SW-620 = assay: Antiproliferative activity against human SW620 cells at 10^-5 M after 48 hrs by SRB assay; type: functional; conditions: SW-620, 48 h, read-out: GI
HCT-15 = assay: Antiproliferative activity against human HCT15 cells at 10^-5 M after 48 hrs by SRB assay; type: functional; conditions: HCT-15, 48 h, read-out: GI
HCT-116 = assay: Antiproliferative activity against human HCT116 cells at 10^-5 M after 48 hrs by SRB assay; type: functional; conditions: HCT-116, 48 h, read-out: GI
SNB-75 = assay: Antiproliferative activity against human SNB75 cells at 10^-5 M after 48 hrs by SRB assay; type: functional; conditions: SNB-75, 48 h, read-out: GI
Malme-3M = assay: Antiproliferative activity against human MALME-3M cells at 10^-5 M after 48 hrs by SRB assay; type: functional; conditions: read-out: GI
NCI/ADR-RES = assay: Antiproliferative activity against human NCI-ADR-RES cells at 10^-5 M after 48 hrs by SRB assay; type: functional; conditions: read-out: GI
HOP-92 = assay: Antiproliferative activity against human HOP92 cells at 10^-5 M after 48 hrs by SRB assay; type: functional; conditions: HOP-92, 48 h, read-out: GI
SK-MEL-28 = assay: Antiproliferative activity against human SK-MEL-28 cells at 10^-5 M after 48 hrs by SRB assay; type: functional; conditions: SK-MEL-28, 48 h, read-out: GI
IGROV-1 = assay: Antiproliferative activity against human IGROV1 cells at 10^-5 M after 48 hrs by SRB assay; type: functional; conditions: IGROV-1, 48 h, read-out: GI
SK-MEL-2 = assay: Antiproliferative activity against human SK-MEL-2 cells at 10^-5 M after 48 hrs by SRB assay; type: functional; conditions: SK-MEL-2, 48 h, read-out: GI
A549 [1] = assay: Antiproliferative activity against human A549 cells at 10^-5 M after 48 hrs by SRB assay; type: functional; conditions: A549, 48 h, read-out: GI
MDA-MB-231 = assay: Antiproliferative activity against human MDA-MB-231 cells at 10^-5 M after 48 hrs by SRB assay; type: functional; conditions: MDA-MB-231, 48 h, read-out: GI
UACC-257 = assay: Antiproliferative activity against human UACC257 cells at 10^-5 M after 48 hrs by SRB assay; type: functional; conditions: UACC-257, 48 h, read-out: GI
MDA-MB-468 = assay: Antiproliferative activity against human MDA-MB-468 cells at 10^-5 M after 48 hrs by SRB assay; type: functional; conditions: MDA-MB-468, 48 h, read-out: GI
SK-MEL-5 = assay: Antiproliferative activity against human SK-MEL-5 cells at 10^-5 M after 48 hrs by SRB assay; type: functional; conditions: SK-MEL-5, 48 h, read-out: GI
U-251 = assay: Antiproliferative activity against human U251 cells at 10^-5 M after 48 hrs by SRB assay; type: functional; conditions: U-251, 48 h, read-out: GI
SK-OV-3 = assay: Antiproliferative activity against human SKOV3 cells at 10^-5 M after 48 hrs by SRB assay; type: functional; conditions: SK-OV-3, 48 h, read-out: GI
A549 [2] = assay: Antiproliferative activity against human A549 cells after 24 hrs by BrdU incorporation assay; type: functional, cell-based; conditions: A549, 24 h
BT-549 = assay: Antiproliferative activity against human BT549 cells at 10^-5 M after 48 hrs by SRB assay; type: functional; conditions: BT-549, 48 h, read-out: GI
NCI-H522 = assay: Antiproliferative activity against human NCI-H522 cells at 10^-5 M after 48 hrs by SRB assay; type: functional; conditions: NCI-H522, 48 h, read-out: GI
SNB-19 = assay: Antiproliferative activity against human SNB19 cells at 10^-5 M after 48 hrs by SRB assay; type: functional; conditions: SNB-19, 48 h, read-out: GI
MCF7 = assay: Antiproliferative activity against human MCF7 cells at 10^-5 M after 48 hrs by SRB assay; type: functional; conditions: MCF7, 48 h, read-out: GI
NCI-H226 = assay: Antiproliferative activity against human NCI-H226 cells at 10^-5 M after 48 hrs by SRB assay; type: functional; conditions: NCI-H226, 48 h, read-out: GI
CAKI-1 = assay: Antiproliferative activity against human Caki1 cells at 10^-5 M after 48 hrs by SRB assay; type: functional; conditions: CAKI-1, 48 h, read-out: GI
WI-38 = assay: Antiproliferative activity against human WI38 cells after 24 hrs by BrdU incorporation assay; type: cell-based; conditions: WI-38, 24 h
786-0 = assay: Antiproliferative activity against human 786-0 cells at 10^-5 M after 48 hrs by SRB assay; type: functional; conditions: 786-0, 48 h, read-out: GI
HL-60(TB) = assay: Antiproliferative activity against human HL-60(TB) cells at 10^-5 M after 48 hrs by SRB assay; type: functional; conditions: HL-60, 48 h, read-out: GI
NCI-H322M = assay: Antiproliferative activity against human NCI-H322M cells at 10^-5 M after 48 hrs by SRB assay; type: functional; conditions: read-out: GI
K562 = assay: Antiproliferative activity against human K562 cells at 10^-5 M after 48 hrs by SRB assay; type: functional; conditions: K562, 48 h, read-out: GI
ACHN = assay: Antiproliferative activity against human ACHN cells at 10^-5 M after 48 hrs by SRB assay; type: functional; conditions: read-out: GI
MOLT-4 = assay: Antiproliferative activity against human MOLT4 cells at 10^-5 M after 48 hrs by SRB assay; type: functional; conditions: MOLT-4, 48 h, read-out: GI
COLO 205 = assay: Antiproliferative activity against human COLO205 cells at 10^-5 M after 48 hrs by SRB assay; type: functional; conditions: COLO 205, 48 h, read-out: GI
Hs-578T = assay: Antiproliferative activity against human Hs 578T cells at 10^-5 M after 48 hrs by SRB assay; type: functional; conditions: read-out: GI
HCC 2998 = assay: Antiproliferative activity against human HCC2998 cells at 10^-5 M after 48 hrs by SRB assay; type: functional; conditions: HCC 2998, 48 h, read-out: GI
OVCAR-5 = assay: Antiproliferative activity against human OVCAR5 cells at 10^-5 M after 48 hrs by SRB assay; type: functional; conditions: OVCAR-5, 48 h, read-out: GI
SN12C = assay: Antiproliferative activity against human SN12C cells at 10^-5 M after 48 hrs by SRB assay; type: functional; conditions: read-out: GI
UO-31 = assay: Antiproliferative activity against human UO31 cells at 10^-5 M after 48 hrs by SRB assay; type: functional; conditions: UO-31, 48 h, read-out: GI
DU-145 = assay: Antiproliferative activity against human DU145 cells at 10^-5 M after 48 hrs by SRB assay; type: functional; conditions: DU-145, 48 h, read-out: GI
SF-539 = assay: Antiproliferative activity against human SF539 cells at 10^-5 M after 48 hrs by SRB assay; type: functional; conditions: SF-539, 48 h, read-out: GI
EKVX = assay: Antiproliferative activity against human EKVX cells at 10^-5 M after 48 hrs by SRB assay; type: functional; conditions: read-out: GI

Compound	inhibition of growth at 10 µM (SW-620)	inhibition of growth at 10 µM (HCT-15)	inhibition of growth at 10 µM (HCT-116)	inhibition of growth at 10 µM (SNB-75)	inhibition of growth at 10 µM (Malme-3M)	inhibition of growth at 10 µM (NCI/ADR-RES)	inhibition of growth at 10 µM (HOP-92)	inhibition of growth at 10 µM (SK-MEL-28)	inhibition of growth at 10 µM (IGROV-1)	inhibition of growth at 10 µM (SK-MEL-2)	inhibition of growth at 10 µM (A549 [1])	inhibition of growth at 10 µM (MDA-MB-231)	inhibition of growth at 10 µM (UACC-257)	inhibition of growth at 10 µM (MDA-MB-468)	inhibition of growth at 10 µM (SK-MEL-5)	inhibition of growth at 10 µM (U-251)	inhibition of growth at 10 µM (SK-OV-3)	pIC50 (A549 [2])	inhibition of growth at 10 µM (BT-549)	inhibition of growth at 10 µM (NCI-H522)	other results
COc1cc(NC(=O)CN2CCN(c3cc4c(cc3F)c(=O)c(C(=O)O)cn4C3CC3)CC2)cc(OC)c1OC	0%	0%	0%	0%	0%	0%	18.7%	0%	0%	7.36%	0%	0%	3.24%	0%	0%	0%	5.77%	< 4.00	7.42%	24.4%	inhibition of growth at 10 µM (SNB-19): 0%; inhibition of growth at 10 µM (MCF7): 0%; inhibition of growth at 10 µM (NCI-H226): 0%; inhibition of growth at 10 µM (CAKI-1): 0%; pIC50 (WI-38): < 4.00; inhibition of growth at 10 µM (786-0): 15.2%; inhibition of growth at 10 µM (HL-60(TB)): 8.4%; inhibition of growth at 10 µM (NCI-H322M): 0%; inhibition of growth at 10 µM (K562): 2.65%; inhibition of growth at 10 µM (ACHN): 0%; inhibition of growth at 10 µM (MOLT-4): 0%; inhibition of growth at 10 µM (COLO 205): 0%; inhibition of growth at 10 µM (Hs-578T): 4.61%; inhibition of growth at 10 µM (HCC 2998): 0%; inhibition of growth at 10 µM (OVCAR-5): 0%; inhibition of growth at 10 µM (SN12C): 2.78%; inhibition of growth at 10 µM (UO-31): 0%; inhibition of growth at 10 µM (DU-145): 0%; inhibition of growth at 10 µM (SF-539): 0%; inhibition of growth at 10 µM (EKVX): 0%
O=C(CN1CCN(c2cc3c(cc2F)c(=O)c(C(=O)O)cn3C2CC2)CC1)Nc1ccc(Cl)cc1	0%	17%	26.9%	20.3%	8.25%	0%	21.1%	12.9%	6.22%	5.16%	30.8%	39.8%	43%	14%	28.9%	55.8%	36.6%	4.83	44.2%	114%	inhibition of growth at 10 µM (SNB-19): 16.9%; inhibition of growth at 10 µM (MCF7): 5.73%; inhibition of growth at 10 µM (NCI-H226): 19.9%; inhibition of growth at 10 µM (CAKI-1): 32.8%; pIC50 (WI-38): < 4.00; inhibition of growth at 10 µM (786-0): 29.9%; inhibition of growth at 10 µM (HL-60(TB)): 10.5%; inhibition of growth at 10 µM (NCI-H322M): 47.2%; inhibition of growth at 10 µM (K562): 31.9%; inhibition of growth at 10 µM (ACHN): 46.8%; inhibition of growth at 10 µM (MOLT-4): 3.53%; inhibition of growth at 10 µM (COLO 205): 0.11%; inhibition of growth at 10 µM (Hs-578T): 12.3%; inhibition of growth at 10 µM (HCC 2998): 14.2%; inhibition of growth at 10 µM (OVCAR-5): 0%; inhibition of growth at 10 µM (SN12C): 9.89%; inhibition of growth at 10 µM (UO-31): 92.8%; inhibition of growth at 10 µM (DU-145): 0.9%; inhibition of growth at 10 µM (SF-539): 13.1%; inhibition of growth at 10 µM (EKVX): 6.62%
